Experimental data as given in paper PMC9570594, “Development of Novel Pyridine-Thiazole Hybrid Molecules as Potential Anticancer Agents” (Molecules, 2022).

Tests used:
SF-539 (CNS Cancer) = assay: NCI one-dose SRB assay; details: 10 μM, 48 h
Description: A primary anticancer assay was performed on a panel of approximately sixty human tumor cell lines derived from nine neoplastic diseases, in accordance with the protocol of the Drug Evaluation Branch, National Cancer Institute, Bethesda [31, 32, 33, 34, 35]. Tested compounds were added to the culture at a single concentration (10^−5 M) and the cultures were incubated for 48 h. End point determinations were made with a protein binding dye, Sulphorhodamine B (SRB). […] The percentage growth was evaluated spectrophotometrically versus controls not treated with test agents.

MCF-7 cells = assay: Chemical synthetic lethality: MTT after preincubation with BRCA1 inhibitor Bractoppin; type: cell-based; details: Homo sapiens, MCF7; MCF-7, 30 min preincubation with Bractoppin, 72 h MTT; read-out: IC50 in the case of BRCA1 inhibition
[1] = test system: Breast Cancer cell lines (MG_MID); assay: NCI five-dose SRB assay; type: cell-based; details: Homo sapiens, 48 h
MCF-7 (Breast Cancer) = assay: NCI five-dose SRB assay; type: cell-based; details: Homo sapiens, MCF7, 48 h
[2] = test system: A549/ATCC (Non-Small Cell Lung Cancer); assay: NCI five-dose SRB assay; type: cell-based; details: Homo sapiens, 48 h
SNB-75 (CNS Cancer) = assay: NCI five-dose SRB assay; type: cell-based; details: Homo sapiens, 48 h
HCC-2998 (Colon Cancer) = assay: NCI five-dose SRB assay; type: cell-based; details: Homo sapiens, 48 h

## CCOC(=O)c1ccc(NC(=O)CSC(CC(=O)c2sc(Nc3ccccn3)nc2C)c2ccccc2F)cc1 (stereo not shown) [Compound 4, Ethyl 4-[[2-[1-(2-Fluorophenyl)-3-[4-methyl-2-(2-pyridylamino)thiazol-5-yl]-3-oxopropyl]sulfanylacetyl]amino]benzoate]
SF-539 (CNS Cancer)
  Growth %: −27.26%
MCF-7 cells
  IC50: 0.7 µM
[1]
  GI50: 14.4 µM
MCF-7 (Breast Cancer)
  GI50: 15.4 µM
[2]
  GI50: 75.7 µM
SNB-75 (CNS Cancer)
  GI50: 3.58 µM
HCC-2998 (Colon Cancer)
  GI50: 23.1 µM
